{"source": "patent US20150166617A1", "about": "“COMPOSITIONS AND METHODS OF TREATING ALZHEIMER'S DISEASE” (UNIVERSITY OF MIAMI, priority 2012, published 2015)", "key": {"[1]": {"test_system": "Alzheimer's disease related genes", "assay": "Mouse Alzheimer's Disease real-time quantitative PCR array on brain samples of 5XFAD mice", "assay_type": "in vivo", "conditions": "brain of 5XFAD mice, 10 μg daily for six months", "method": "Total RNA was isolated and DNAse treated from representative hemispheria using NucleoSpin kit according to the manufacturer's instructions (Macherey-Nagel Inc., Bethlehem, Pa.). Five samples each from the control and the 10 μg MIA-690 group were analyzed. The yield and the quality of RNA samples were determined spectrophotometrically using 260 nm, and 260/280 and 260/230 nm ratio. The synthesis of cDNA was performed as follows. Briefly, 1 μg of RNA from each sample was reverse-transcribed into cDNA by RT First Strand kit (Qiagen). Reverse transcription was done in a Veriti 96-well thermal cycler (Applied Biosystems). The Mouse Alzheimer's Disease real-time quantitative PCR array (PAMM-057Z Qiagen) used in the study contains 84 unique genes related to Alzheimer's disease. All PCR arrays were performed using iQ5 Multicolor Real-Time Detections System (Bio-Rad). […] Data analysis of gene expression was performed using Excel based PCR Array Data Analysis Software provided by the manufacturer (Qiagen): fold-changes in gene expression were calculated using the ΔΔCt method and five stably expressed housekeeping genes (Act b, B2m, GAPDH, Gus b, Hsp 90 ab1) were used for normalization of the results."}, "HCN-2 cells": {"test_system": "HCN-2 cells", "assay": "Cell viability assay, HCN-2 cells treated with amyloid-β1-42 (MTT), Example 5", "assay_type": "cell-based", "conditions": "10 μM amyloid-β1-42; peptide 10 nM, 100 nM, 1 μM; four days of exposure; FIG. 7", "method": "Differentiated HCN-2A neuronal cells were treated with 10 μM amyloid-β1-42 alone and in combination with 10 nM, 100 nM and 1 μM of MIA-602, MIA-606 and MIA 640. After the treatment, the cell viability was determinate as indicated by the supplier using the Promega Cell Titer 96® Aqueous Non-Radioactive Cell Proliferation Assay. The absorbance level was determined at 490 nm. Data are percentage of control (n=3).\nHCN-2 cells (American Type Culture Collection, Manassas, Va., USA) were cultured in DMEM medium (supplemented with 10% Fetal Bovine Serum (FBS) and 0.1% penicillin/streptomycin) at 37° C. and in an atmosphere of air and 5% CO2. Cell were directly plated into 96-well micro plates at 5,000 cells/cm^2. After 7 days, to allow cell number duplication (up to 70-80% confluence), the differentiation of HCN-2 cells was induced by adding fresh medium containing 25 ng/ml NGF, 0.5 mM dibutyryl cAMP and 0.5 mM isobutylmethylxanthine (IBMX) (all from Sigma-Aldrich, St. Louis, Mo.) for a week. Then, human amyloid-β1-42 (Sunnyvale, Calif.) stock solution (10 mM) was prepared in TRIS and then immediately diluted to appropriate concentrations in the assay medium. The medium used for neurotoxicity assay was N2-supplemented DMEMF12 (Gibco BRL, NY) with 2% FBS. The treatment groups were control, amyloid-β1-42, and the combination treatments with amyloid-β1-42 and 3 doses (10 nM, 100 nM and 1 μM) of the analogs (MIA-602, MIA-606 and MIA-640). The effect of the analogs on cell viability was evaluated after four days of exposure by using the 3-(4,5-Dimethylthiazol-2-yl)-2,5-diphenyltetrazolium bromide (MTT) assay (Cell Titer 96® Non-Radioactive Cell Proliferation Assay, Promega, Madison, Wis.), according to the manufacturer's instructions."}}, "note": "Square brackets hold non-standard residues; d marks the D form. Peptide text beside a SMILES is read from it. * marks the point of attachment. Phe(F5) = N[C@@H](Cc1c(F)c(F)c(F)c(F)c1F)C(=O)O; Phe(4-Cl) = N[C@@H](Cc1ccc(Cl)cc1)C(=O)O; hArg = N=C(N)NCCCC[C@H](N)C(=O)O; 12Ado = NCCCCCCCCCCCC(=O)O; Nle = CCCC[C@H](N)C(=O)O; Orn = NCCC[C@H](N)C(=O)O; Abu = CC[C@H](N)C(=O)O; PhAc = O=C(Cc1ccccc1)*", "data": [{"compound": "CCCC[C@H](NC(=O)[C@@H](NC(=O)[C@H](CC(=O)O)NC(=O)[C@H](CCC(N)=O)NC(=O)[C@H](CC(C)C)NC(=O)[C@H](CC(C)C)NC(=O)[C@H](CCCN)NC(=O)[C@H](Cc1c[nH]cn1)NC(=O)[C@H](C)NC(=O)[C@H](CO)NC(=O)[C@H](CC(C)C)NC(=O)[C@H](CCC(N)=O)NC(=O)[C@H](CC)NC(=O)[C@H](CC(C)C)NC(=O)[C@@H](NC(=O)[C@H](CCCN)NC(=O)[C@H](Cc1c[nH]cn1)NC(=O)[C@H](Cc1c(F)c(F)c(F)c(F)c1F)NC(=O)[C@H](CCCCNC(=N)N)NC(=O)[C@H](C)NC(=O)[C@@H](NC(=O)[C@H](Cc1ccc(Cl)cc1)NC(=O)[C@@H](NC(=O)[C@H](C)NC(=O)[C@H](CC(=O)O)NC(=O)[C@@H](CCCNC(=N)N)NC(=O)[C@H](Cc1ccc(O)cc1)NC(=O)CCCCCCCCCCCNC(=O)Cc1ccccc1)[C@@H](C)CC)[C@@H](C)O)C(C)C)[C@@H](C)CC)C(=O)N[C@H](CCCNC(=N)N)C(=O)N[C@@H](CCCCNC(=N)N)C(N)=O", "note": "[MIA-690, Phac-Ada-Tyr^1-D-Arg^2-Asp^3-Ala^4-Ile^5-Cpa^6-Thr^7-Ala^8-Har^9-Fpa5^10-His^11-Orn^12-Val^13-Leu^14-Abu^15-Gln^16-Leu^17-Ser^18-Ala^19-His^20-Orn^21-Leu^22-Leu^23-Gln^24-Asp^25-Ile^26-Nle^27-D-Arg^28-Har^29-NH2] ({PhAc-12Ado}-Y[dR]DAI[Phe(4-Cl)]TA[hArg][Phe(F5)]H[Orn]VL[Abu]QLSAH[Orn]LLQDI[Nle][dR][hArg]-NH2)", "values": [{"measurement": "Fold change vs. controls: amyloid-β (A4) precursor protein binding family A, member 2", "setting": "[1]", "result": "−2.94", "unit": "fold"}, {"measurement": "Fold change vs. controls: amyloid-β (A4) precursor protein binding family B, member 3", "setting": "[1]", "result": "−2.04", "unit": "fold"}]}, {"compound": "Phac-Ada-Tyr^1-D-Arg^2-Asp^3-Ala^4-Ile^5-Cpa^6-Thr^7-Ala^8-Har^9-Fpa5^10-His^11-Orn^12-Val^13-Leu^14-Abu^15-Gln^16-Glu^17-Ser^18-Ala^19-His^20-Orn^21-Leu^22-Leu^23-Gln^24-Asp^25-Ile^26-Nle^27-D-Arg^28-Har^29-Ada-NH2 [MIA-640]", "values": [{"measurement": "viability of neurons (HCN-2) under amyloid-β1-42 co-treatment", "setting": "HCN-2 cells", "result": "attenuated the toxic impact of co-treatment with amyloid-β1-42 on the viability of neurons"}]}, {"compound": "Phac-Ada-Tyr^1-D-Arg^2-Asp^3-Ala^4-Ile^5-Phe(F)5^6-Thr^7-Ala^8-Har^9-Tyr(Me)^10-His^11-Orn^12-Val^13-Leu^14-Abu^15-Gln^16-Leu^17-Ser^18-Ala^19-His^20-Orn^21-Leu^22-Leu^23-Gln^24-Asp^25-Ile^26-Nle^27-D-Arg^28-Har^29-NH2 [MIA-602]", "values": [{"measurement": "viability of neurons (HCN-2) under amyloid-β1-42 co-treatment", "setting": "HCN-2 cells", "result": "attenuated the toxic impact of co-treatment with amyloid-β1-42 on the viability of neurons"}]}, {"compound": "Phac-Ada-Tyr^1-D-Arg^2-Asp^3-Ala^4-Ile^5-Phe(F)5^6-Thr^7-Me-Ala^8-Har^9-Tyr(Me)^10-His^11-Orn^12-Val^13-Leu^14-Abu^15-Gln^16-Leu^17-Ser^18-Ala^19-His^20-Orn^21-Leu^22-Leu^23-Gln^24-Asp^25-Ile^26-Nle^27-D-Arg^28-Har^29-Agm-NH2 [MIA-606]", "values": [{"measurement": "viability of neurons (HCN-2) under amyloid-β1-42 co-treatment", "setting": "HCN-2 cells", "result": "attenuated the toxic impact of co-treatment with amyloid-β1-42 on the viability of neurons"}]}]}
